Assay results as given in PubChem BioAssay (NCI).
“And” between values parts separate entries of the source, which are not always exact repeats. Equal values may be shown once.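 Five compound concentrations were applied to cells in 96-well plates for 48 hours; endpoints were derived by simple linear interpolation of the resulting dose-response curve. GI50 = concentration required for 50% inhibition of growth. At the TGI there is no net growth.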

How the values were obtained:
Assay in all cases: NCI tumour cell line growth inhibition, 48 h
[1] = test system: XF 498 CNS
[2] = test system: P388 leukemia
[3] = test system: P388/ADR leukemia
[4] = test system: SNB-78 CNS
[5] = test system: HOP-18 NSCLC
[6] = test system: DMS 114 small cell lung
[7] = test system: MDA-N
[8] = test system: DMS 273 small cell lung
[9] = test system: T-47D breast
[10] = test system: LXFL 529 NSCLC

SMILES	TGI [1] [µM]	TGI [2] [µM]	TGI [3] [µM]	TGI [4] [µM]	TGI [5]	TGI [6] [µM]	TGI [7] [µM]	TGI [8] [µM]	TGI [9] [µM]	TGI [10] [µM]	GI50 [5] [µM]
CC(=O)O[C@H]1C(=O)O[C@@H]2C[C@H]3C(C)=CC(=O)[C@@H](O)[C@]3(C)[C@H]3[C@@]4(O)OC[C@]32[C@@H]1[C@@H](C)[C@H]4O	0.243	0.555	7.51	0.384	1.53 µM	0.041	0.127	0.0682			
CNNCc1ccc(C(=O)NC(C)C)cc1	> 500	> 500	> 500	> 500	139 µM and > 500 µM		> 500	> 500	> 500	> 500	> 500
